Consider 37 compounds from BindingDB's records for doi:10.1021/cc060110n (University of Mississippi, 2007).

The target in test [1] is L-lactate dehydrogenase (Plasmodium falciparum, UniProt B9UDZ5). As to the kind of experiment: Enzyme Assay. From the text:
(§1) Enzyme assay using recombinant pfLDH and mLDH (bovine heart).

The target of test [2] is L-lactate dehydrogenase B chain (Bos taurus, UniProt Q5E9B1). As to the kind of experiment: Enzyme Assay.
From the text: as §1

pIC50: −log10 of the molar value.

In general, pIC50 refers to the negative decadic logarithm of the IC50, by convention in mol/L.

Chain of L-lactate dehydrogenase B chain (Q5E9B1 whole entry): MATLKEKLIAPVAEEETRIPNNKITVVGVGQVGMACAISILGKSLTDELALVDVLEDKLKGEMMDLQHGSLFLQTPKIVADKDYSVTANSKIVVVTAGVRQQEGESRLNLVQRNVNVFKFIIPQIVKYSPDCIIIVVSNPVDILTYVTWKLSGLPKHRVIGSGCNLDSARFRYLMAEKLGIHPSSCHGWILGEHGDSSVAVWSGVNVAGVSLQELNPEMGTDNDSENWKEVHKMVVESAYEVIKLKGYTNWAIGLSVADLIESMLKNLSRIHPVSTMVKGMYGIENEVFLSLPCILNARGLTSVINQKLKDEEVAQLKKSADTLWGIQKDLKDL
Chain of L-lactate dehydrogenase (B9UDZ5 whole entry): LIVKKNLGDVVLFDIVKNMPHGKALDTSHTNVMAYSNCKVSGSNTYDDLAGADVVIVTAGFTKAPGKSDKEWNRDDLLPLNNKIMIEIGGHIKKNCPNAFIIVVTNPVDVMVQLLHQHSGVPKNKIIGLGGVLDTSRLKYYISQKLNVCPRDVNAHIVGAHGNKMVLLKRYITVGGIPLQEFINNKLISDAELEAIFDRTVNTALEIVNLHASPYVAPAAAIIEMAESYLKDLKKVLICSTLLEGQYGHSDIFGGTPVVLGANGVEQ

On to `CCc1ccccc1N(Cc1ccccc1)C(=O)C(=O)O` [Oxamic Acid/Ester, 8], for which the figures for the pIC50 in test [1] and in test [2] were below 3.70 and 3.80, respectively.
Take `C=CCN(C(=O)C(=O)O)C1CCCCC1` [Oxamic Acid/Ester, 29]: the pIC50 in test [1] and in test [2] was below 3.70 throughout.
Regarding `NC(=O)C(=O)O` [carbamoylformic acid], the pIC50 in test [1] was 4.03.
In the case of `O=C(O)C(=O)NCCc1ccc(Br)cc1` [Oxamic Acid/Ester, 42], the values for the negative logarithm of the IC50 (pIC50) in test [1] and in test [2] were 4.29 and below 3.70, respectively.
Take `CCCCNC(=O)C(=O)O` [Oxamic Acid/Ester, 12]: the negative-log IC50 (pIC50) in test [1] and in test [2] was below 3.70 each time.
With `CN(Cc1ccccc1)C(=O)C(=O)O` [Oxamic Acid/Ester, 30], the pIC50 in test [1] was below 3.70; in test [2], 3.77.
For `O=C(O)C(=O)NCC1CCCO1` (stereo not drawn) [Oxamic Acid/Ester, 35], the negative-log IC50 (pIC50) in test [1] is 3.73; in test [2], below 3.70.
Turning to `O=C(O)C(=O)N(Cc1ccccc1)Cc1ccccc1` [Oxamic Acid/Ester, 32], the pIC50 in test [1] and in test [2] was below 3.70 each time.
`O=C(O)C(=O)NCc1cccc2ccccc12` [Oxamic Acid/Ester, 17]: the figures for the negative-log IC50 (pIC50) in test [1] and in test [2] were 4.37 and below 3.70, respectively.
The matching figures for `Cc1cc2c(C(C)C)c(O)c(O)c(C=O)c2c(O)c1-c1c(C)cc2c(C(C)C)c(O)c(O)c(C=O)c2c1O` [Tash 1]: 5.40 and 5.16.
On to `CC(C)c1ccc2c(c1)CCC1[C@](C)(CNC(=O)C(=O)O)CCC[C@]21C` (stereo partly drawn) [Oxamic Acid/Ester, 18], for which the pIC50 in test [1] was 4.23; in test [2], 4.70.
The matching figures for `O=C(O)C(=O)NCCC(c1ccccc1)c1ccccc1` [Oxamic Acid/Ester, 36]: 4.46 and 4.05.
On to `C=CCN(C)C(=O)C(=O)O` [Oxamic Acid/Ester, 11], for which the pIC50 in test [1] and in test [2] was below 3.70 in each case.
`O=C(O)C(=O)N1CCC(Cc2ccccc2)CC1` [Oxamic Acid/Ester, 20]: the negative logarithm of the IC50 (pIC50) was 4.00 in test [1] and 4.23 in test [2].
Consider `CCCCCCCNC(=O)C(=O)O` [Oxamic Acid/Ester, 10], for which the pIC50 in test [1] is 3.80; in test [2], below 3.70.
With `CN(Cc1ccco1)C(=O)C(=O)O` [Oxamic Acid/Ester, 16], the negative logarithm of the IC50 (pIC50) in test [1] is below 3.70; in test [2], 3.73.
`CCCCCCCCCCCCCCCCNC(=O)C(=O)O` [Oxamic Acid/Ester, 14]: the results for the negative logarithm of the IC50 (pIC50) in test [1] and in test [2] were below 3.70 and 3.82, respectively.
Regarding `COCCCNC(=O)C(=O)O` [Oxamic Acid/Ester, 25], the pIC50 was 4.37 in test [1] and 4.51 in test [2].
With `O=C(O)C(=O)NCCCCc1ccccc1` [Oxamic Acid/Ester, 41], the negative-log IC50 (pIC50) in test [1] is 4.39; in test [2], 4.06.
In the case of `O=C(O)C(=O)N(Cc1ccccc1)c1ccccc1` [Oxamic Acid/Ester, 22], the pIC50 in test [1] and in test [2] was below 3.70 each time.
Consider `CSc1cccc(NC(=O)C(=O)O)c1` [Oxamic Acid/Ester, 37], for which the pIC50 in test [1] and in test [2] was below 3.70 each time.
With `O=C(O)C(=O)NCc1ccco1` [Oxamic Acid/Ester, 39], the pIC50 in test [1] and in test [2] was below 3.70 in each case.
Take `CC(NC(=O)C(=O)O)c1cccc2c1CCCC2` (stereo not drawn) [Oxamic Acid/Ester, 38]: the negative logarithm of the IC50 (pIC50) is 3.84 in test [1] and below 3.70 in test [2].
The matching figures for `COCCNC(=O)C(=O)O` [Oxamic Acid/Ester, 21]: 4.85 and 4.60.
Regarding `CCCCCN(C)C(=O)C(=O)O` [Oxamic Acid/Ester, 28], the pIC50 in test [1] and in test [2] was below 3.70 in each case.
With `CC(C)CNC(=O)C(=O)O` [Oxamic Acid/Ester, 40], the negative-log IC50 (pIC50) in test [1] and in test [2] was below 3.70 in each case.
As for `Cc1ccc(CNC(=O)C(=O)O)o1` [Oxamic Acid/Ester, 15], the pIC50 in test [1] and in test [2] was below 3.70 in each case.
On to `O=C(O)C(=O)N1CCN(c2ccccc2)CC1` [Oxamic Acid/Ester, 27], for which the pIC50 in test [1] was below 3.70; in test [2], 4.49.
With `CN(C(=O)C(=O)O)c1ccccc1` [Oxamic Acid/Ester, 24], the pIC50 in test [1] and in test [2] was below 3.70 in each case.
In the case of `CCC(C)NC(=O)C(=O)O` (stereo not drawn) [Oxamic Acid/Ester, 31], the negative-log IC50 (pIC50) in test [1] and in test [2] was below 3.70 throughout.
Regarding `O=C(O)C(=O)N1CCN(Cc2ccccc2)CC1` [Oxamic Acid/Ester, 19], the pIC50 was 3.77 in test [1] and 4.34 in test [2].
On the same counts, the results for `CC(C)CCNC(=O)C(=O)O` [Oxamic Acid/Ester, 34] are 3.80 and below 3.70.
Turning to `CC1CCCCN1C(=O)C(=O)O` (stereo not drawn) [Oxamic Acid/Ester, 33], the negative-log IC50 (pIC50) is below 3.70 in test [1] and 4.37 in test [2].
`Cc1cccc(N(C(=O)C(=O)O)c2ccccc2)c1` [Oxamic Acid/Ester, 7]: the negative logarithm of the IC50 (pIC50) was 4.01 in test [1] and 3.97 in test [2].
`COc1ccccc1NC(=O)C(=O)O` [Oxamic Acid/Ester, 6]: the pIC50 in test [1] and in test [2] was below 3.70 in each case.
`CCCCCCNC(=O)C(=O)O` [Oxamic Acid/Ester, 23]: the values for the negative-log IC50 (pIC50) in test [1] and in test [2] were 4.33 and 3.88, respectively.
Consider `CCCCCCCCCNC(=O)C(=O)O` [Oxamic Acid/Ester, 26], for which the pIC50 was 4.06 in test [1] and below 3.70 in test [2].
